How the values were obtained:
[1] = test system: Human immunodeficiency virus 1; assay: Inhibition of the spread of viral infection in MT-4 human T-lymphoid cells infected by IIIb isolate; format: functional; conditions: read-out: CIC95
[2] = target: T1, Human immunodeficiency virus type 1 protease (Human immunodeficiency virus 1, UniProt Q72874); assay: In vitro inhibitory activity against mutant HIV-1 (A-44)protease
[3] = target: T1, Human immunodeficiency virus type 1 protease; assay: In vitro inhibitory activity against wild type HIV-1 protease
[4] = Tested for the pharmacokinetic data, maximum concentration (Cmax) in dog; format: ADME, organism-based, Canis lupus familiaris; conditions: in vivo
[5] = Tested for the half life period in dog; format: ADME, organism-based, Canis lupus familiaris; conditions: in vivo
[6] = Tested for the pharmacokinetic data, area under the curve of concentration versus time in dog; format: ADME, organism-based, Canis lupus familiaris; conditions: in vivo
[7] = species on record: Canis familiaris; assay: Tested for the pharmacokinetic data, time required to reach Cmax (Tmax) in dog; format: ADME, organism-based, Canis lupus familiaris; conditions: in vivo
[8] = Human immunodeficiency virus 1, T-lymphoid

SMILES	IC95 [1, 8] [µM]	IC50 [2] [nM]	IC50 [3] [nM]	Cmax [4] [nM]	half-life [5] [min]	AUC [6] [µM·h]	T max [7] [min]	IC95 [1] [µM]
Cn1nc(C(F)(F)F)cc1-c1ccc(CN2CCN(C[C@@H](O)C[C@@H](Cc3ccccc3)C(=O)N[C@@H]3c4ccccc4C[C@H]3O)[C@H](C(=O)NC(C)(C)C)C2)s1	0.025	0.6	0.13					
CC(C)(C)NC(=O)[C@@H]1CN(Cc2cccnc2)CCN1C[C@@H](O)C[C@@H](Cc1cccnc1)C(=O)NC1c2cccc(F)c2C[C@H]1O (single isomer, unassigned)				268	28.7	0.245	40	
CC(C)(C)NC(=O)[C@@H]1CN(Cc2cccnc2)CCN1C[C@@H](O)C[C@@H](CC1CCCCC1)C(=O)NC1c2cccc(F)c2C[C@H]1O (single isomer, unassigned)				148	48.2	0.236	40	
CC(C)(C)NC(=O)[C@@H]1CN(CC2(c3ccccc3)CC2)CCN1C[C@@H](O)C[C@@H](Cc1ccccc1)C(=O)N[C@@H]1c2ccccc2C[C@H]1O	> 0.4	257	7.7					
CC1=CSC2C(CN3CCN(C[C@@H](O)C[C@@H](Cc4ccccc4)C(=O)N[C@@H]4c5ccccc5C[C@H]4O)[C@H](C(=O)NC(C)(C)C)C3)N=CN12 (stereo partly drawn)	> 0.4	378	6.7					
Cn1cc(CN2CCN(C[C@@H](O)C[C@@H](Cc3ccccc3)C(=O)N[C@@H]3c4ccccc4C[C@H]3O)[C@H](C(=O)NC(C)(C)C)C2)ccc1=O	0.4	131	2.2					
CC(C)(C)NC(=O)[C@@H]1CN(Cc2cccnc2)CCN1C[C@@H](O)C[C@@H](Cc1cccnc1)C(=O)NC1c2cccc(Cl)c2C[C@H]1O (single isomer, unassigned)				220	23.9	0.227	40	
CC(C)(C)NC(=O)[C@@H]1CN(Cc2nc3ccccc3s2)CCN1C[C@@H](O)C[C@@H](Cc1ccccc1)C(=O)N[C@@H]1c2ccccc2C[C@H]1O	0.4	71.7	1.2					
CC(C)(C)NC(=O)[C@@H]1CN(Cc2cccnc2)CCN1C[C@@H](O)C[C@@H](Cc1ccc(F)cc1)C(=O)N[C@@H]1c2cccc(F)c2C[C@H]1O				195	48.2	0.197	40	
CC(C)(C)NC(=O)[C@@H]1CN(Cc2cccnc2)CCN1C[C@@H](O)C[C@@H](Cc1cccnc1)C(=O)N[C@@H]1c2ccccc2C[C@H]1O				313	43.4	0.291	40	
CC(C)(C)NC(=O)[C@@H]1CN(Cc2cc3cc(F)ccc3o2)CCN1C[C@@H](O)C[C@@H](Cc1ccccc1)C(=O)N[C@@H]1c2ccccc2C[C@H]1O	0.2	46	0.94					
CC(C)(C)NC(=O)[C@@H]1CN(Cc2cc3ccccc3o2)CCN1C[C@@H](O)C[C@@H](Cc1ccccc1)C(=O)NC1c2ccccc2C[C@H]1O (stereo partly drawn)	0.05	24	0.49					
CC(C)(C)NC(=O)[C@@H]1CN(Cc2cccnc2)CCN1C[C@@H](O)C[C@@H](Cc1ccc(F)cc1)C(=O)NC1c2cccc(Cl)c2C[C@H]1O (single isomer, unassigned)				180	50.5	0.181	40	
CC(C)(C)NC(=O)[C@@H]1CN(Cc2cccnc2)CCN1C[C@@H](O)C[C@@H](CC1CC1)C(=O)NC1c2ccccc2C[C@H]1O (single isomer, unassigned)				651	21.2	0.566	40	
C[C@@H]1CC[C@@H](O)C1NC(=O)[C@H](Cc1ccccc1)C[C@H](O)CN1CCN(Cc2cccnc2)C[C@H]1C(=O)NC(C)(C)C (single isomer, unassigned)				554	31.5	0.512	40	
C[C@@H]1CC[C@@H](O)[C@@H]1NC(=O)[C@H](Cc1ccc(F)cc1)C[C@H](O)CN1CCN(Cc2cccnc2)C[C@H]1C(=O)NC(C)(C)C				378	39.2	0.371	40	
CC(C)(C)NC(=O)[C@@H]1CN(Cc2ncc(-c3ccccc3)s2)CCN1C[C@@H](O)C[C@@H](Cc1ccccc1)C(=O)N[C@@H]1c2ccccc2C[C@H]1O	0.05	2	0.26					
CC(C)(C)NC(=O)[C@@H]1CN(Cc2cccnc2)CCN1C[C@@H](O)C[C@@H](Cc1ccccc1)C(=O)NC1c2ccccc2C[C@H]1O.O (single isomer, unassigned) [INDINAVIR]	0.05			358	27.1	0.307	40	0.0505
CC(C)(C)NC(=O)[C@@H]1CN(Cc2noc3ccccc23)CCN1C[C@@H](O)C[C@@H](Cc1ccccc1)C(=O)NC1c2ccccc2C[C@H]1O (stereo partly drawn)	0.4	71.5	1.17					
CC(C)(C)NC(=O)[C@@H]1CN(Cc2cccnc2)CCN1C[C@@H](O)C[C@@H](Cc1ccccc1)C(=O)NC1c2cccc(F)c2C[C@H]1O (single isomer, unassigned)				250	44.5	0.258	40	
CC(C)(C)NC(=O)[C@@H]1CN(Cc2cccc(C(C)(C)NC(=O)OC(C)(C)C)c2)CCN1C[C@@H](O)C[C@@H](Cc1ccccc1)C(=O)N[C@@H]1c2ccccc2C[C@H]1O	> 0.4	392	28					
CC(C)(C)NC(=O)[C@@H]1CN(Cc2cccnc2)CCN1C[C@@H](O)C[C@@H](CC1CC1)C(=O)NC1c2cccc(Cl)c2C[C@H]1O (single isomer, unassigned)				626	23	0.566	40	
C[C@@H]1CC[C@@H](O)C1NC(=O)[C@H](Cc1cccnc1)C[C@H](O)CN1CCN(Cc2cccnc2)C[C@H]1C(=O)NC(C)(C)C (single isomer, unassigned)				524	23.4	0.464	40	
CC(C)(C)NC(=O)[C@@H]1CN(CCCC(F)(F)F)CCN1C[C@@H](O)C[C@@H](Cc1ccccc1)C(=O)N[C@@H]1c2ccccc2C[C@H]1O	> 0.4	568	15.3					
CC(C)(C)NC(=O)[C@@H]1CN(Cc2cccnc2)CCN1C[C@@H](O)C[C@@H](CC1CC1)C(=O)NC1c2cccc(F)c2C[C@H]1O (single isomer, unassigned)				610	20.2	0.525	40	
CC(C)(C)NC(=O)[C@@H]1CN(Cc2cccnc2)CCN1C[C@@H](O)C[C@@H](CC1CCCCC1)C(=O)NC1c2ccccc2C[C@H]1O (single isomer, unassigned)				232	54.4	0.26	40	
CC(C)(C)NC(=O)[C@@H]1CN(Cc2cccnc2)CCN1C[C@@H](O)C[C@@H](Cc1ccc(F)cc1)C(=O)NC1c2ccccc2C[C@H]1O (single isomer, unassigned)				264	44.6	0.258	40	
CC(C)(C)NC(=O)[C@@H]1CN(Cc2cccnc2)CCN1C[C@@H](O)C[C@@H](Cc1ccccc1)C(=O)NC1c2cccc(Cl)c2C[C@H]1O (single isomer, unassigned)				250	45.8	0.256	40	
